From patent US20230009366A1, “Using Alternating Electric Fields at Different Frequencies to Increase Permeability of the Blood Brain Barrier and also to Provide Other Benefits” (Novocure GmbH, priority 2021, published 2023)

Experiments:
human glioblastoma cells = experiment: Bioluminescence substrate permeation in luciferase-expressing glioblastoma cells; type: cell-based; settings: TTFields exposure
Description: Bioluminescence imaging: For all bioluminescence work, we used genetically-modified GBM2, GBM39 and U87-MG whereby the glioblastoma cells were transfected with lentiviral vectors that expressed either firefly luciferase (fLuc for GBM39) or a fusion protein of GFP and firefly luciferase (GFP/fLuc for GBM2 and eGFP-fLuc for U87-MG) or a Renilla luciferase-Red Fluorescence protein fusion (RLuc-RL8 for KR158B).

U87-MG/eGFP-fLuc cells = experiment: Reversibility of TTFields-induced uptake; type: cell-based, human; settings: TTFields 24 h vs none vs TTFields 24 h followed by no TTFields 24 h
Protocol: To assess the reversibility of the effect of TTFields on cancer cells, U87-MG/eGFP-fLuc cells were subjected to three conditions: (1) No TTFields exposure, standard cell culture conditions (37° C., […], 5% CO2), (2) TTFields exposure for 24 h and (3) TTFields exposure for 24 h followed by no TTFields exposure for 24 h. The readouts of BLI, PpIX fluorescence (5-ALA product) and Dextran-FITC (4 kDa) fluorescence were acquired. All experimental conditions were done in triplicate. […] Here, NS=not significant; BLI=bioluminescent imaging; eGFP=enhanced green fluorescence protein; fLuc=firefly luciferase; 5-ALA=5 aminolevulinic acid; FITC=fluorescein isothiocyanate; PpIX=protoporphyrin IX; and FL=fluorescence.
In vitro tumor treating field apparatus: The coverslips were transferred to a ceramic dish of the Inovitro™ system, which in turn was mounted onto Inovitro™ base plates (Novocure Ltd., Haifa, Israel). Tumor treating fields at 200 kHz (1-4 V/cm) were applied through an Inovitro™ power generator. Incubator ambient temperatures spanned 20-27° C. with a target temperature of 37° C. in the ceramic dishes upon application of the TTFields. Duration of TTFields exposure lasted anywhere from 0.5 to 72 h, after which coverslips were removed and processed for the appropriate bioassays (see below). […]

BBB of rat brain [1] = experiment: Evans Blue accumulation in rat brain after alternating electric fields; type: in vivo; settings: 100 kHz fields 72 h vs sham heat/control
Description: A set of in vivo experiments on rats was also run to quantify the increase in vessel permeability caused by exposure to the alternating electric fields. These experiments used Evans Blue (EB) dye, which is an azo dye that has a very high affinity for serum albumin (molecule size ˜69 kDa). Because of its large molecule size, serum albumin will ordinarily not be able to get past the BBB.
This was accomplished by shaving each rat's head, positioning a first pair of capacitively coupled electrodes on the top and bottom of the rat's head, and positioning a second pair of capacitively coupled electrodes on the left and right sides of the rat's head. A 100 kHz AC voltage was then applied between the top and bottom electrodes for 1 second, followed by a 100 kHz AC voltage applied between the right and left electrodes for 1 second, in a repeating sequence.
Under the conditions indicated in Table 1 and for the times indicated on Table 1, EB was injected intravenously into the tail vein under anesthesia (Once injected, EB immediately binds to Albumin), and the EB was allowed to circulate for 2 hours in all cases. The following steps were then performed: (a) intracardiac perfusion with saline; (b) brains are sliced in four pieces with a brain slicer; (c) pieces were photographed to localize staining and weighted; (d) EB extraction after tissue homogenization with TCA 50% (1:3) and centrifuge and (e) EB quantification at 610 nm. Results are given as μg EB per g tissue.
During the experiment, two animals from group 2 and one animal from group 4 were excluded (disrupted treatment, failure to inject EB into the tail vein). There were no differences between the animals treated with alternating electric fields (groups 1 and 2) and therefore these animals were grouped together. Similarly, there were no differences between sham heat and control animals (groups 3 and 4) and therefore these animals were grouped together.
EB accumulation in these four specific sections was then measured. In addition, a computer simulation was performed to determine the field strength in each of these four sections. […]

BBB of rat brain [2] = experiment: DCE-MRI of gadolinium contrast agent accumulation in rat brain; type: in vivo; settings: for contrast agent accumulation in the brain tissue after recovery: 100 kHz fields 72 h followed by 96 h without fields
Protocol: Yet another set of in vivo experiments was performed using Dynamic Contrast Enhanced MRI (DCE-MRI) with intravenous injection of Gadolinium contrast agent (Gd-DTPA, Magnetol, MW 547). In these experiments, test rats were treated with 100 kHz alternating electric fields for 72 h, and control rats were not treated with alternating electric fields for the same period of time. After this 72 h period, the alternating electric field was turned off, the rats were anesthetized, and a series of 60 Tlw MRI scans (each of the scans having a duration of 28 seconds) was acquired. The gadolinium contrast agent was injected into the rat's tail vein during the 7th of these 60 scans.
The image analysis for each rat included (1) determining a baseline for each voxel by calculating the mean of the first six Tlw MRI scans for each voxel (i.e., the scans prior to the injection of the gadolinium); (2) computing voxel by voxel, the percent signal change (i.e., gadolinium accumulation) over time relative to the baseline; (3) segmenting the brain into anterior, middle, and posterior segments; (4) generating for each of the three segments the mean percent signal change with respect to the baseline over all the voxels in the respective segment and then (5) averaging 4 consecutive time points (i.e. 4 scans) together. Finally, the data from all of the rats within any given group were averaged together.
To test whether this increase in permeability of the BBB was temporary, the same test conditions were repeated, but followed with an additional 96 hours without alternating electric fields. After this 96 hour period, a series of 60 Tlw MM scans (each of the scans having a duration of 28 seconds) was acquired using the same procedure described above (including the gadolinium injection). The results of this portion of the DCE-MM experiment for each of the three segments of the brain are also depicted in FIG. 8. […] From this we can conclude that the permeability of the BBB returns to normal after the alternating electric fields are discontinued.
The relationship between the intensity of the alternating electric fields and the impact of those fields on BBB integrity and permeability was also apparent from in vivo experiments in rats using serial dynamic contrast-enhanced (DCE) MM to measure gadolinium (Gd) uptake after 100 kHz alternating electric fields were applied for 72 hours. The rat's brains were segmented into three regions (anterior, posterior, and middle), and simulations of the alternating electric fields delivery to those three regions yielded field strengths of 1.5±0.6 V/cm RMS, 2.1±1.2 V/cm RMS, and 2.7±1.7 V/cm RMS respectively. […] These findings also indicate that the cells' response to alternating electric fields depends on the intensity of the fields.

GBM39/Luc cells = experiment: Drug sensitivity / synergy with TTFields; type: cell-based, human
GBM F98 cells = experiment: Paclitaxel plus alternating electric fields in orthotopic glioblastoma rats; type: in vivo, rat
Protocol: Another set of in vivo experiments was performed to determine whether paclitaxel (PTX, which is a drug that ordinarily cannot traverse the BBB) can make it across the BBB when the subject is treated with alternating electric fields. In one of these experiments, glioblastoma was induced in rats by injecting them orthotopically with GBM F98 cells on day 0 of the experiment. On day 6, a first set of MRI scans of each rat's brains was obtained. Alternating electric fields at 100 kHz were applied to all the rats on days 7 through 10. On day 10 (i.e., after applying the fields for 72 hours), some of the rats were injected i.p. with 25 mg/kg PTX, while other rats were not injected. Subsequently, on day 13 (i.e., 3 days post PTX administration), a second set of MRI scans of each rat's brain was obtained. Ki67 (red) and DAPI (blue) staining was evaluated for the test and control rats.
A similar experiment using a 15 mg/kg dose of PTX was performed, except that instead of quantifying the Ki67/DAPI ratio on day 13, Mill scans and post mortem tissue sections were used to determine the fold increase of the tumor volume on day 15. The tumor volumes from these experiments are depicted in FIG. 11. […] And the inventors have concluded that the alternating electric fields allow the PTX (or metabolites thereof) to cross the BBB.

firefly luciferase = target: T1, firefly luciferase (Photinus pyralis, UniProt P08659); experiment: Activity of purified firefly luciferase under TTFields; type: biochemical
T1 construct: purchased Sigma Aldrich Inc (St. Louis, Mo.) SRE0045-2MG
T1 sequence (P08659 whole entry): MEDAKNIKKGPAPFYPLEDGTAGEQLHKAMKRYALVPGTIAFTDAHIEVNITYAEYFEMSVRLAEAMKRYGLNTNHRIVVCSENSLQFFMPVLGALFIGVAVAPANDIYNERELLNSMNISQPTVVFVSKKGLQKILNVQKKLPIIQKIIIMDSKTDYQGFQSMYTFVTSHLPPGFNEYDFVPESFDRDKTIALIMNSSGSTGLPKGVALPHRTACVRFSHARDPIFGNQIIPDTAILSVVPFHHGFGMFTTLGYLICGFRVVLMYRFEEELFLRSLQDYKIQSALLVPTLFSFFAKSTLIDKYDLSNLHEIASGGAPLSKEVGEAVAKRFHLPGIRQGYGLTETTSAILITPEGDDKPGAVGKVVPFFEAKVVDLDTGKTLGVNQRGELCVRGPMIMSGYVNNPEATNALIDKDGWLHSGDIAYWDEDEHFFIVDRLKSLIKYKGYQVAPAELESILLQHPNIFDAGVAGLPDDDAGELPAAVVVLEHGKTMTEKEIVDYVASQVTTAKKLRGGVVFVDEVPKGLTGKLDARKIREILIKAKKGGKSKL
Protocol: U87-MG/eGFP-fLuc cells were seeded on Thermanox glass coverslips, allowed to settle and grow, and then subjected to either TTFields or no TTFields. […] This increase in BLI occurred as early as 30 minutes after commencement of TTFields and continued to 24 h of TTFields exposure. […] Without being bound by this theory, it is believed that the elevation in bioluminescence was not due to a direct effect of TTFields on firefly luciferase activity because exposure of purified firefly luciferase to 200 kHz TTFields led to over a 1000-fold loss in enzymatic activity 60 minutes after initiation of TTFields.
FIG. 16B depicts the effect of TTFields on eGFP fluorescence in U87-MG/eGFP-fLuc cells observed from time course of representative images (not shown) for TTFields-exposed vs. TTFields-unexposed U87-MG/eGFP-fLuc. […] More specifically, FIG. 16C depicts the effect of TTFields on the fLuc bioluminescence (fLuc-BLI) over eGFP fluorescence (eGFP-FL) ratio for U87-MG/eGFP-fLuc cells as a function of length of TTFields exposure; and FIG. 16D depicts the effect of TTFields exposure vs. non-exposure on the fLuc-BLI/eGFP-FL ratio as a function of TTFields exposure time (hours).

`O=C(O)[C@H]1CSC(c2nc3ccc(O)cc3s2)=N1` [D-luciferin] was tested, and the “permeation of luciferase substrate through the plasma membrane” value (human glioblastoma cells) was “increased permeation” and the “reversibility of increased uptake” value (U87-MG/eGFP-fLuc cells) was “reversibly increase uptake”.

For `Cc1cc(-c2ccc(/N=N/c3ccc4c(S(=O)(=O)O)cc(S(=O)(=O)O)c(N)c4c3O)c(C)c2)ccc1/N=N/c1ccc2c(S(=O)(=O)O)cc(S(=O)(=O)O)c(N)c2c1O` [EB, Evans Blue], the “EB accumulation in posterior sections (3, 4)” value (BBB of rat brain [1]; EB i.v., 2 h circulation) was “smaller increase (that was not statistically significant)”, the “EB accumulation in sections 1, 2 (frontal cerebrum)” value (BBB of rat brain [1]; EB i.v., 2 h circulation) was “statistically significant increase” and the “average EB accumulation in the rat brain, averaged over all four sections” value (BBB of rat brain [1]; p<0.05) was “higher accumulation”.

In the case of `O=C([O-])CN(CCN(CC(=O)[O-])CC(=O)O)CCN(CC(=O)[O-])CC(=O)O.[Gd+3]` [Gd-DTPA], the “Gd accumulation in the anterior part of the brain” value (BBB of rat brain [2]; 100 kHz fields 72 h) is reported as “no significant Gd accumulation”, the “signal enhancement in the middle and posterior brains” value (BBB of rat brain [2]; 100 kHz fields 72 h, about 10 minutes after Gd injection, vs control rats) is reported as “significantly increased signal enhancement” and the “contrast agent accumulation in the brain tissue after recovery” value (BBB of rat brain [2]; listed as Gd) is reported as “no significant accumulation”. The “contrast agent accumulation in the brain tissue after recovery” value (BBB of rat brain [2]; listed as contrast agent) was “not significantly different”, the “contrast agent accumulation in the brain tissue” value (BBB of rat brain [2]; 100 kHz fields 72 h vs control rats) was “significantly higher” and the “spatial distribution of Gd enhancement” value (BBB of rat brain [2]; test rats, 20 to 23 minutes post-contrast administration) was “distributed in the whole brain”.

In the case of `CCc1c2c(nc3ccc(OC(=O)N4CCC(N5CCCCC5)CC4)cc13)-c1cc3c(c(=O)n1C2)COC(=O)[C@]3(O)CC` [Irinotecan], the “synergy of TTFields plus drug” value (GBM39/Luc cells) is reported as “synergy was found” and the “sensitivity of cells to drug” value (GBM39/Luc cells; TTFields for 3 days vs no TTFields) is reported as “improves the sensitivity”.

`CC(=O)O[C@H]1C(=O)[C@@]2(C)[C@H]([C@H](OC(=O)c3ccccc3)[C@]3(O)C[C@H](OC(=O)[C@H](O)[C@@H](NC(=O)c4ccccc4)c4ccccc4)C(C)=C1C3(C)C)[C@]1(OC(C)=O)CO[C@@H]1C[C@@H]2O` [PTX, paclitaxel] was tested, and the “fold increase of the tumor volume” value (GBM F98 cells; 15 mg/kg PTX + 100 kHz fields vs heat only, heat+PTX, fields only, day 15) was “significant decrease in the fold tumor volume increase” and the “Ki67/DAPI ratio (cell proliferation in the GBM tumor)” value (GBM F98 cells; 25 mg/kg PTX i.p. after 72 h 100 kHz fields vs fields only, day 13) was “significant decrease in cell proliferation”.

`Oc1ccc(Cc2nc3c(Cc4ccccc4)nc(-c4ccc(O)cc4)cn3c2O)cc1` [coelenterazine] was tested, and the “permeation of luciferase substrate through the plasma membrane” value (human glioblastoma cells) was “increased permeation”.

With “firefly luciferase: purified firefly luciferase enzyme” the “loss in enzymatic activity” value (firefly luciferase; 200 kHz TTFields, 60 minutes after initiation) was > 1000 fold and the “activity of purified firefly luciferase” value (firefly luciferase; TTFields vs no TTFields, p<0.01) was “significantly decreased activity”.
